Laboratory results taken from patent US20100022393A1, “Glyphosate applications in aquaculture” (priority 2008, published 2010).

Assays:
Dunaliella culture = experiment: Dunaliella growth in F2 media in seawater, optical density at 680 and 750 nm; type: cell-based; conditions: for effect on Dunaliella growth: various concentrations, F2 media in seawater, after approximately six days, optical density 680 and 750 nm
Protocol: (§1) According to one exemplary method, thirty (30) microliters of a Dunaliella culture were inoculated into seven (7) milliliters of F2 media within seawater. The mixture was distributed evenly between six well plates. Glyphosate was added at various concentrations. Additional well plates were inoculated with the same Dunaliella culture, but were not treated with glyphosate. After approximately six days, optical density measurements at both 680 and 750 nanometers were taken in triplicate for each of the various glyphosate concentrations.
as §1, with “in” for “within”, “Ammonium chloride” for “Glyphosate”, “ammonium chloride.” for “glyphosate.”, “ammonium chloride” for “glyphosate”
as §1, with “in” for “within”, “Ammonium hydroxide” for “Glyphosate”, “ammonium hydroxide.” for “glyphosate.”, “ammonium hydroxide” for “glyphosate”

Nannochloropsis culture = experiment: Nannochloropsis growth in F2 media in seawater, optical density at 680 and 750 nm; type: cell-based; conditions: for IC50: 144 h, read-out: concentration that inhibited Nannochloropsis growth by approximately fifty percent (50%); for effect on Nannochloropsis growth: various concentrations, F2 media in seawater, after approximately six days, optical density 680 and 750 nm
Protocol: as §1, with “a Nannochloropsis” for “a Dunaliella”, “culture was introduced” for “culture were inoculated”, “media in” for “media within”, “same Nannochloropis” for “same Dunaliella”, “culture, however, the well plates” for “culture, but”
as §1, with “a Nannochloropsis” for “a Dunaliella”, “media in” for “media within”, “plates. Ammonium chloride” for “plates. Glyphosate”, “same Nannochloropis” for “same Dunaliella”, “with ammonium chloride.” for “with glyphosate.”, “various ammonium chloride” for “various glyphosate”
as §1, with “Nannochloropsis” for “Dunaliella”, “in” for “within”, “Ammonium hydroxide” for “Glyphosate”, “ammonium hydroxide.” for “glyphosate.”, “ammonium hydroxide” for “glyphosate”
According to one exemplary method, thirty (30) microliters of a Nannochloropsis culture was introduced into seven (7) milliliters of F2 media in seawater. The mixture was distributed evenly between six well plates. Glufosinate was added at various concentrations. Additional well plates were inoculated with the same Nannochloropsis culture, however, the well plates were not treated with glufosinate. After approximately six days, optical density measurements at both 680 and 750 nanometers were taken in triplicate for each of the various glufosinate concentrations.

Compound	IC50 (Dunaliella culture; 144 h, read-out: concentration that inhibited Dunaliella growth by approximately fifty percent (50%)) [µM]	effect on Dunaliella growth (Dunaliella culture)	IC50 (Nannochloropsis culture) [µM]	effect on Nannochloropsis growth (Nannochloropsis culture)
O=C(O)CNCP(=O)(O)O [glyphosate]	~1200	inhibited Dunaliella growth	~800	controlled (inhibited) Nannochloropsis growth
Cl.N [ammonium chloride]	–	did not inhibit Dunaliella growth	–	did not inhibit Nannochloropsis growth
N [ammonium hydroxide]	–	did not inhibit Dunaliella growth	–	did not inhibit Nannochloropsis growth
CP(=O)(O)CCC(N)C(=O)O (stereo not shown) [glufosinate]	–	–	~25	controlled (inhibited) Nannochloropsis growth
